Laboratory results taken from patent US6410515B1, “Peptide, a method for its preparation and a pharmaceutical composition containing the peptide” (Immunotech Developments Inc., priority 1995, dated 2002).

Assays:
[1] = system: CFU-S population of bone marrow; test: Spleen colony and CFU-S count after peptide injection to marrow donor mice; format: in vivo; details: for Colony count: control 10,7 ± 0,5; for CFU-S count: control 2436
Protocol: The effect of peptides of the present invention on a population of hemopoietic progenitors was studied by testing for colony formation by hemopoietic stem cells in spleens of irradiated mice.
The peptide was injected intraperitoneally (IP) at different concentrations to intact mice. After two hours, one day, or two days the animals were killed. The bone marrow from the animals was taken to prepare a suspension of marrow cells, which was injected to lethally irradiated (8.5 Gy) mice. Along with the bone marrow, the recipients received injections of thymocytes. After 9 days, spleen colonies were counted. […]
The treatment was performed as described in Example 4(c).

[2] = system: CFU-S in S-phase; test: Thymidine suicide test on boosted (4 Gy) bone marrow; format: in vivo, mice; details: for Average colony count: 4 Gy, per 10^5 injected bone marrow cells; for % CFU-S in S-phase: irradiation alone 55,0, intact control 10,5
Protocol: The mechanism of the inhibiting effect of the peptide on hemopoiesis was studied using the “thymidine suicide” test. The method provides an accurate measurement of the percentage of dividing cells (in the S-phase of the cell cycle). A bone marrow suspension is incubated with 3H-thymidine, which kills cells in the S-phase.
The first series of experiments investigated the effect of the peptide on CFU-S proliferation. Such an assay can not be done with intact marrow since the progenitors proliferate very poorly (0 to 15% in a cycle) in intact bone marrow. Consequently, as a source of CFU-S, “boosted” bone marrow was used containing at least 40% proliferating cells. “Boosted” bone marrow was obtained from mouse bone marrow on the 7th day following radiation with a dose of 4 Gy. Donor mice were irradiated with this dose and 5 or 6 days later they received iDD. On day 7 following the irradiation, the bone marrow was examined for the percentage of dividing cells, i.e. the iDD treatment lasted 1 or 2 days. According to the results obtained, when injected two days before the extraction of bone marrow, the peptide inhibited the proliferation so that the percentage of dividing cells was even lower than in intact subjects. When the peptide was injected one day before bone marrow was taken, no effect was observed (Table 7).
Table 7 illustrates the effect of the peptide on cell proliferation in irradiated (4 Gy) bone marrow.

[3] = system: hemopoietic progenitor cells (CFU-S); test: CFU-S content in bone marrow of mice irradiated with 4 Gy; format: in vivo; details: day 8, control 401 ± 48
Protocol: The effect of H-A-D-Trp-Y, where A is D-Glu or D-iGlu and Y is OH or a substituted amide, on protection and reconstitution of the population of hemopoietic progenitor cells in cytopenias of different origin was studied.
Ionising radiation was used to deplete bone marrow. Donor mice were irradiated at a dose of 4 Gy. For each of the two peptides, 10 μg/kg was injected intraperitoneally 1 hour, 1 day or 2 days before the irradiation (groups of 12 mice each). Bone marrow was taken from femoral bones 8 days after the irradiation. Eight days generally marks the beginning of an exponential reconstitution of both the total number of cells and the population of hemopoietic progenitors in the bone marrow, which were depleted as a result of irradiation.
On the 8th day a sharp statistically significant increase was recorded in the hemopoietic progenitor cells count in the bone marrow of the mice irradiated in the dose of 4 Gy who had received the peptide 2 days before the irradiation.

[4] = system: caryocytes in femoral marrow; test: Reconstitution of caryocyte numbers in femoral marrow after 4 Gy; format: in vivo, mice; details: 10 μg/kg IP 2 days before 4 Gy
Protocol: The reconstitution of caryocyte numbers and that of hemopoietic progenitors was studied in femoral marrow after irradiation in the dose of 4 Gy and the peptide injection. The test was performed in 12 groups of mice, 6 animals each, and lasted 14 days. Intraperitoneal injections of the peptide in a dose of 10 μg/kg were made 1 day and 2 days before the irradiation.

[5] = system: (CBA×C57B1)F1 mice; test: Chronic graft versus host reaction (GVHR); format: in vivo; details: for Mouse weight: iDD 10 μg/kg/injection
Protocol: The effect of the peptide on a chronic “graft versus host reaction ” (GVHR) was studied, using the mode l described by Bundic et al. (Exp. Immunol. 1995, 99, p.467). Chronic GVHR was induced in hybrid non-irradiated animals by injecting them twice with large amounts (100 mln) of spleen cells of one of the parents.
Recipients were (CBA×C57B1)F1 mice, and donors of spleen cells were mice of the strain C57B1. The preparation iDD was administered in the same dose (10 μg/kg/injection) as in the tests on transplantation of allogenic bone marrow. Th e five-day treatment course began 24 hours after the first injection of spleen cells and lasted three weeks. Control group mice received Medium 199 in the same amount and at the same time as test mice received the peptide. Each group consisted of 15 animals.
Indicators of the degree of GVHR development were animal weight and splenomegaly (as measured by the increase in recipient's spleen weight on day 21). The effectiveness of the preparation was assessed by splenomegaly suppression expressed in % to control (splenomegaly in the control group was taken for […]). The interval between the first and the second injections of spleen cells was 7 days.
On day 21, a sharp increase in weight was recorded in 70% of control mice and 55% of test mice.

[6] = system: patients with cytopenias of immune origin; test: Clinical study: tolerability; format: in vivo
Protocol: The peptide iDD was given to patients with cytopenias of immune origin and its effect on hemopoietic status was assessed using a number of immunological tests characterising both humoral and cellular immunity.
The iDD was administered 0.1 mg in a 1 ml dose intranasally (once or twice in divided doses) for 5 days. The regime was repeated after a two week interval. For patients receiving steroids and cytostatics, iDD was administered during the therapy or before the cytostatic treatment.

[7] = Peptide IP to donor mice 2 hours before
[8] = Peptide IP to donor mice 1 day before
[9] = Peptide IP to donor mice 2 days before

## H-D-iGlu-D-Trp-OH [iDD]
[1]; [7]
  Colony count: 6,6 ± 0,5
  CFU-S count: 917
[1]; [8]
  Colony count: 4,7 ± 0,6
  CFU-S count: 653
[1]; Peptide IP to donor mice 2 days before + thymocytes
  Colony count: 9,4 ± 0,9
[1]; [9]
  Colony count: 6,0 ± 0,9
  CFU-S count: 1098
[2]; iDD 1 day before marrow extraction, + 3H
  Average colony count: 5,8 ± 0,5
[2]; iDD 1 day before marrow extraction, without 3H
  Average colony count: 8,3 ± 0,4
[2]; iDD 1 day
  % CFU-S in S-phase: 50,6%
[2]; iDD 2 days before marrow extraction, + 3H
  Average colony count: 2,8 ± 0,2
[2]; iDD 2 days before marrow extraction, without 3H
  Average colony count: 3,5 ± 0,2
[2]; iDD 2 days
  % CFU-S in S-phase: 5,8%
[3]; 10 μg/kg IP 1 hour before 4 Gy
  CFU-S count per femur: 394 ± 57
[3]; 10 μg/kg IP 1 day before 4 Gy
  CFU-S count per femur: 324 ± 63
[3]; 10 μg/kg IP 2 days before 4 Gy
  CFU-S count per femur: 677 ± 49
[4]; 4 days after irradiation, 4 Gy alone 9,0 ± 0,3
  Caryocyte count: 12,8 ± 0,9 × 10^6
[4]; 7 days after irradiation, 4 Gy alone 10,6 ± 0,8
  Caryocyte count: 21,3 ± 2,1 × 10^6
[4]; 11 days after irradiation, 4 Gy alone 17,0 ± 0,6
  Caryocyte count: 17,3 ± 1,0 × 10^6
[4]; 14 days after irradiation, 4 Gy alone 17,0 ± 1,2
  Caryocyte count: 20,5 ± 0,5 × 10^6
[5]; 21 days, control 80%
  Survival rate: 100%
[5]; 21 days, control group weight loss 3 g
  Weight loss throughout the experiment: practically no weight loss
[5]; day 21, relative to control
  Splenomegaly suppression, %: 26%
[5]; day 21, control 12,6 ± 1,2, intact 3,4 ± 0,3
  Splenomegaly: 10,2 ± 1,0 mg spleen per mg body weight
[5]; day 21, control 70%
  Mice with sharp increase in weight on day 21: 55%
[5]; day 0 after the first injection of spleen cells, control 22,3 ± 0,9
  Mouse weight: 22,6 ± 0,7 g
[5]; day 7, control 21,7 ± 0,8
  Mouse weight: 25,0 ± 0,6 g
[5]; day 14, control 18,3 ± 0,9
  Mouse weight: 23,3 ± 1,0 g
[5]; day 21, control 19,3 ± 1,1
  Mouse weight: 22,7 ± 0,9 g
[6]; before and after 1-3 treatment courses
  Dynamics of biochemical indices: no changes
[6]; before and after the treatment
  Somatic status (physical examinations): no changes
[6]; iDD courses
  Changes in AP dynamics and ECG: not observed
[6]; prolonged administration (5-6 courses), 0.1 mg intranasally for 5 days
  Toxic and adverse reactions: no toxic reactions
